Measurements as given in patent US7652070B2, “Treatment method for MMP-implicated pathologies” (priority 2007, dated 2010).

How the values were obtained:
[1] = tested on: cystinosis patients; conditions: cited from earlier work
[2] = tested on: pre-renal transplant cystinotics; conditions: cited from earlier work
[3] = molecular target: MMP-9 (Homo sapiens, UniProt P14780); test: Breakdown/inhibition of MMP-9 by cysteamine analyzed by zymography; type: biochemical; conditions: Michaelis-Mentin kinetics, FIG. 1
Description: FIG. 1 is a table illustrating inhibition of MMP-9 by cysteamine.
FIG. 1 illustrates the result of a laboratory test showing the breakdown of MMP-9 as analyzed by zymography. Because enzymes are structure specific, it can be inferred that there is inhibition of MMP-9 by cysteamine. It is believed that cysteamine inactivates MMP by breaking an important sulfur bond, causing the enzyme to unfold.

MMP-9, sequence (P14780 94-707): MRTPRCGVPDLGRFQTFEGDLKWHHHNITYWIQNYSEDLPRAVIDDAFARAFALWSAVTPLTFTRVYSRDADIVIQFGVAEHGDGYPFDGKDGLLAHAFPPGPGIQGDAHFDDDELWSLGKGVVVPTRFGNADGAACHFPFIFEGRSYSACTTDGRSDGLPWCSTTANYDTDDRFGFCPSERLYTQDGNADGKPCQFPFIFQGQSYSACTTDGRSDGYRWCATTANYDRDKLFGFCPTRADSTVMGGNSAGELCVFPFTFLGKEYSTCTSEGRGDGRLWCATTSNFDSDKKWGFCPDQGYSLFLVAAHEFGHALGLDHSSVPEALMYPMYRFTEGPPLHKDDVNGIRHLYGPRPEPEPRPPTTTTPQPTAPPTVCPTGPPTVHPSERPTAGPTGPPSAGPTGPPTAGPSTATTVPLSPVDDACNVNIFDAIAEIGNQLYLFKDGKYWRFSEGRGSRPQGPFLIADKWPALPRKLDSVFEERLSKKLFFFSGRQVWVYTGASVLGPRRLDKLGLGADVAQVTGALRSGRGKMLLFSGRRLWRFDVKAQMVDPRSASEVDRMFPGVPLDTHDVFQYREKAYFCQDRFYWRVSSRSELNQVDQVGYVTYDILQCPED

Row | SMILES | efficacy of eye drop concentration ([1]; concentration 0.1%, cystinosis patients) | toxicity of eye drops ([1]; eye drop 0.5%, preserved with benzalkonium, up to 12 times per day, slight burning sensation possible) | effect of cysteamine therapy on growth and renal function [2] | toxicity of cysteamine therapy [2] | Ki [3] [µM]
1 | Cl.NCCS [Cysteamine {HCl}] | effective | no toxicity has not been observed | – | – | –
2 | NCCS [cysteamine, Cysteamine (HSCH2CH2NH2)] | – | – | improved growth and stabilized renal function | without substantial toxicity | 530 ± 140
